Assay results published in US11155851B2, “Compounds and methods relating to lysosomal storage disorders” (University of Washington through its Center of …, priority 2013, dated 2021).

Columns and labels:
[1] = target: T1, acid-β-glucocerebrosidase (ABG) (Homo sapiens, UniProt P04062); assay: Detection of enzyme activity in dried blood spots by mass spectrometry (ABG substrate); type: biochemical; conditions: FIG. 6, dried blood disk, substrate 500 μmol/L, 15 to 24 hours at 37° Celsius
T1 construct: from tissue; host or cells: dried blood spots from adult human venous blood
T1 sequence (P04062 40-536): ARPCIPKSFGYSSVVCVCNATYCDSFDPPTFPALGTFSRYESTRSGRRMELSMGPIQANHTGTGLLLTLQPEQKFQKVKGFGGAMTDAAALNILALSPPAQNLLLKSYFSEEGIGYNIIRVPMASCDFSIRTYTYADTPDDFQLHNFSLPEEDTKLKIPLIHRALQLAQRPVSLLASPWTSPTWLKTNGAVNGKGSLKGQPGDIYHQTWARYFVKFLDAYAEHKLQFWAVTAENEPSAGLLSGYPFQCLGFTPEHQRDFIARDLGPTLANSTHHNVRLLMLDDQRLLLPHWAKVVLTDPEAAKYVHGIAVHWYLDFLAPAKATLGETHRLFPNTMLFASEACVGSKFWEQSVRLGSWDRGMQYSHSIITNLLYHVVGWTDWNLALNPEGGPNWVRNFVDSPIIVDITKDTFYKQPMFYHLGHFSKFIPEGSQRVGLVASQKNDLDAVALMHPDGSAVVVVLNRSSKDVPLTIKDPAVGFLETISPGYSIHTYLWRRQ
Experimental: The substrates of Compounds 1 and 7 are used to detect the presence of acid-β-glucocerebrosidase (ABG) and galactocerebroside-β-galactosidase (GALC) respectively. Blood is obtained by venipuncture from consenting adult humans and blotted on filter paper. For each sample, a disk of 3 mm diameter is punched from the areas of dried blood into a well of a 96-well microtiter plate. The blood disk is then incubated directly with an assay solution containing substrates at a final concentration of 500 μmol/L and corresponding internal standards at a final concentration of 5 μmol/L. To the assay solution, a final concentration of 0.5 mol/L sodium acetate buffer with sodium taurocholate is also added. The assay mixture containing the blood disk is incubated for 15 to 24 hours at 37° Celsius with orbital shaking (150 rpm) in a thermostatic air shaker. After the incubation period, an aliquot of pure methanol is added to each tube or well to terminate the enzymatic reaction. Before going into the mass spectrometer, the incubated reaction mixture is diluted with pure methanol. For the mass spectrometry analysis, the electrospray source is operated in positive mode, and the ions are detected in parent-ion scan mode. The amount of enzymatic product is calculated from the ion abundance ratio of the product to the internal standard minus that of a blank.

[2] = target: T1, acid-β-glucocerebrosidase (ABG); assay: Simultaneous detection of multiple enzyme activity in dried blood spots by MS/MS (ABG); type: biochemical; conditions: Compounds 1 and 7 used simultaneously, substrates 100 μmol/L, dried blood disk, 15 to 24 hours at 37° Celsius
Experimental: The substrates of Compounds 1 and 7 are used simultaneously to detect the presence of acid-β-glucocerebrosidase (ABG) and galactocerebroside-β-galactosidase (GALC) respectively. Blood is obtained by venipuncture from consenting adult humans and blotted on filter paper. For each sample, a disk of 3 mm diameter is punched from the areas of dried blood into a well of a 96-well microtiter plate. The blood disk is then incubated directly with an assay solution containing substrates at a final concentration of 100 μmol/L and corresponding internal standards at a final concentration of 1 μmol/L. To the assay solution, a final concentration of 0.5 mol/L sodium acetate with sodium taurocholate buffer is also added (30 μl final assay volume). The assay mixture containing the blood disk is incubated for 15 to 24 hours at 37° Celsius with orbital shaking (150 rpm) in a thermostatic air shaker. After the incubation period, a 100 μl aliquot of 50:50 methanol/ethyl acetate is added to each tube or well to terminate the enzymatic reaction. The reaction is then supplemented with 400 μl HPLC grade ethyl acetate and 200 μl water. […] For mass spectrometry analysis, the electrospray source is operated in positive mode, and the ions are detected in parent-ion scan mode. The amount of enzymatic product is calculated from the ion abundance ratio of the product to the internal standard minus that of a blank.

- improvement in product detection over a similar compound substituting the C5 amido for a C12 amido [1]: 2 fold
Compound: CCCCCCCCCCCCC/C=C/C(O)C(CO[C@@H]1OC(CO)[C@@H](O)C(O)C1O)NC(=O)CCCC (some centres unmarked) [Compound 1]
- detection of ABG (enzymatic product by MS/MS) [2]: Detection of both ABG and GALC is achieved
